According to patent US7939546B2, “Quinoline derivatives for modulating DNA methylation” (SuperGen, Inc., priority 2007, dated 2011):
Read-outs that look alike come from different tables or passages of the source.

Columns and labels:
CMV-EE210 cell line = test: Toxicity (TD50, cell viability) reported with the GFP assay; conditions: for TD50: Dose at which cells are >50% viable
[1] = system: CMV-EE210 cell line containing the epigenetically silenced GFP transgene; test: Cell-based GFP assay for demethylating activity (reactivation of silenced GFP transgene); conditions: for IC50: read-out: GFP IC50
Procedure: The demethylating activity of non-bis-quaternary 4-anilinoquinolines were tested in a cell-based GFP (green fluorescent protein) assay. This assay has a GFP gene regulated by the CMV promoter and is sensitive to the methylation of CpG sites within the promoter. A decrease in methylation resulting from exposure to a methylation inhibitor leads to GFP expression and is readily scored. Specifically, the CMV-EE210 cell line containing the epigenetically silenced GFP transgene was used to assay for reactivation of GFP expression by flow cytometry. CMV-EE210 was made by transfecting NIH 3T3 cells with the pTR-UF/UF1/UF2 plasmid (Zolotuhin et al., 1996), which is comprised of pBS(+) (Stratagene, Inc.) containing a cytomegalovirus (CMV) promoter driving a humanized GFP gene adapted for expression in mammalian cells. After transfection, high-level GFP expressing cells were initially selected by FACS analysis and sorting using a MoFlo cytometer (Cytomation, Inc.). […] To screen for reactivation of CMV-EE210, decitabine (at […]) or a test compound (at a concentration of 30-50 μM) was added to complete medium (phenol red free DMEM (Gibco, Life Technologies) supplemented with 10% fetal bovine serum (Hyclone)). Cells were then seeded to 30% confluence (˜5000 cell/well) in 96 well plate containing the test compounds and grown for three days in at 37° C. in 5% CO2. The plates were examined under a fluorescent microscope using a 450-490 excitation filter (13 filter cube, Leica, Deerfield Ill.). Wells were scored g1 positive if 10% of viable cells express GFP, g2 positive if 30% of viable cells express GFP and g3 if greater than 75% of the viable cells express GFP. GFP IC 50 is the concentration of an inhibitor that (like an IC50) is the dose at which the GFP expression level goes from g3 to g1/2.

DNMT1 [2] = biological target: T1, DNMT1 (Homo sapiens, UniProt P26358); test: Selective depletion of DNMT1 by Western blot in treated HCT116 cells; type: cell-based; set-up: Protein extracts (equivalent to 100 μg) were isolated from HCT116 cells; endogenous in cells; host or cells: HCT116; conditions: for % DNMT1 protein level remaining at 5 µM: HCT-116, 5 μM; for % DNMT1 protein level remaining at 10 µM: HCT-116, 10 μM; for % DNMT1 protein level remaining at 100 µM: HCT-116, 100 μM
Text: Biol. 2005, 11, 4727-41.]. For DNMT1, commercially available antibodies from Santa Cruz or New England Biolabs were used.
Target sequence in this assay (P26358 whole entry): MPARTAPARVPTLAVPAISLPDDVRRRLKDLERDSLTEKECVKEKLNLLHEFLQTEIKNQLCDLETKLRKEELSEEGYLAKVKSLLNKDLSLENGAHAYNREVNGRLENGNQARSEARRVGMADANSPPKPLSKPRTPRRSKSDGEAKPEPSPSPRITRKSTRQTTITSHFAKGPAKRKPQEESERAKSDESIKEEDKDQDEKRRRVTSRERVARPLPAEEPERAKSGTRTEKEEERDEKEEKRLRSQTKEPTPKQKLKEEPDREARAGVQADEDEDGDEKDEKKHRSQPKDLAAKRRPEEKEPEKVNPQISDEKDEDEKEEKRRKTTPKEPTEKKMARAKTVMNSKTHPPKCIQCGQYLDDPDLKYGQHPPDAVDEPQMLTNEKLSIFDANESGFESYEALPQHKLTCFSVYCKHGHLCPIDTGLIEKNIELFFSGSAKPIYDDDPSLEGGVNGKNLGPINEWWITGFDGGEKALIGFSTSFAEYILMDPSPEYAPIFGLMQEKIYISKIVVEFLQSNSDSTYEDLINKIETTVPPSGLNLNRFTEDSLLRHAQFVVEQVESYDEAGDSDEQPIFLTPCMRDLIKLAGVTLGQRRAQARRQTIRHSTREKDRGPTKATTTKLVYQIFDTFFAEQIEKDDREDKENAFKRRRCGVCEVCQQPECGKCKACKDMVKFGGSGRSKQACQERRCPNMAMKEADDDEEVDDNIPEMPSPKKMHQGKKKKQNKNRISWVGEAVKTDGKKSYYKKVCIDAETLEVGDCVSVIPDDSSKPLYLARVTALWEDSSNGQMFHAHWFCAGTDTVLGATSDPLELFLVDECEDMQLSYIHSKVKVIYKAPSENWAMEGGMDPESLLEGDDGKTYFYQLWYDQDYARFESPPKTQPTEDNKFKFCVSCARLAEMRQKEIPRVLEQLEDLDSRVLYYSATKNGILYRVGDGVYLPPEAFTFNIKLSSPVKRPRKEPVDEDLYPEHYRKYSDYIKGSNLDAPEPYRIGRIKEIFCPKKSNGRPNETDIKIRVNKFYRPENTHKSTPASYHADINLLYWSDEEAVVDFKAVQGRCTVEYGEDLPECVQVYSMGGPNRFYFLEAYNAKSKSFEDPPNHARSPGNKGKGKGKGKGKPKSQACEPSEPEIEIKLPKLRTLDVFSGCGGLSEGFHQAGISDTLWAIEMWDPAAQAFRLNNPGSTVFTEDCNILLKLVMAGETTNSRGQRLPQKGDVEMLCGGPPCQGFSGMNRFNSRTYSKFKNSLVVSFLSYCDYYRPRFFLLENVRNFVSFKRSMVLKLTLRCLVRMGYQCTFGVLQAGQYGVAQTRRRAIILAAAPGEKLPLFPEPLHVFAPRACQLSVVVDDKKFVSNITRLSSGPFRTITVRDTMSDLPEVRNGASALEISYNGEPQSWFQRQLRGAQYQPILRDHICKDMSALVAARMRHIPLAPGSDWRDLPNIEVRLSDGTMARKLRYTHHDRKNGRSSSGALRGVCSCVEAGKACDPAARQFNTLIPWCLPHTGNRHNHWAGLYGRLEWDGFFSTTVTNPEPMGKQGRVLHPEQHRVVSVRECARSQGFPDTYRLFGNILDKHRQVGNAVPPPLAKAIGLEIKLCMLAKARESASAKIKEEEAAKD

DNMT1 [3] = biological target: T1, DNMT1; test: DNMT1 Inhibition Assay (Epigentek DNMT1 Activity/Inhibition kit); type: biochemical; conditions: 100 μM SAM, 2.2 μg/ml DNMT1 enzyme
Procedure: The DNMT1 Activity/Inhibition kit from Epigentek Inc. (Brooklyn, N.Y.) was used in this experiment (Catalog No. P-3006). In general terms, this assay utilizes an active DNMT1 enzyme incubated with S-adenosylmethionine (SAM) in 96-well plates upon which unmethylated DNA has been immobilized onto the surface of each well. After incubation the reaction wells are washed and probed with a primary anti-methylcytosine antibody, which will bind to methylated DNA. A secondary antibody is then used to detect the primary antibody and creates a signal that is proportional to the amount of methylated DNA in the well. Uninhibited DNMT1 produces a well with high levels of methylated DNA (high signal), whereas inhibited DNMT1 produces a well with low levels of methylation (low signal). The final concentrations of reagents used in this DNMT1 assay were as follows: 100 μM SAM and 2.2 μg/ml DNMT1 enzyme, with inhibitor concentrations typically ranging from 100 μM to 0.781 μM.
More specifically, test compounds were resuspended in 100% DMSO at 3 mM and serially diluted 1:2 in DMSO 8 times. A volume of 100 μl of 1× assay buffer was combined with 12 μl of 1 mM SAM solution and 4 μl of 66.7 μg/mL DNMT1 enzyme in the presence of 4 μl of test compound diluted in DMSO. Controls include enzyme only (no inhibitor, but containing 3.3% DMSO), no enzyme, and compounds having inhibitory activity. A volume of 30 μl of the mixed solution was then added to the substrate-coated wells in triplicate and incubated at 37° C. for 2 hours. Reaction wells are then washed 3× with 150 μl of DNMT wash buffer. The primary antibody (anti-methylcytosine) was diluted 1:1000 in wash buffer, added to each well (50 μl) and incubated at room temperature for 1 hour. Reaction wells were washed again. The secondary antibody was diluted 1:1000 in wash buffer, added to each well (50 μl) and incubated at room temperature for 30 min. The wells were washed for the last time. […] The stop solution was added (50 μl) and the plate was immediately read on a plate reader at 450 nm absorbance. […]
Target sequence in this assay (P26358 whole entry, species assumed): as the sequence (P26358 whole entry) above

[4] = dose at which the GFP expression level goes from g3 to g1/2

IC50 (DNMT1 [3]) [µM] | Structure (SMILES) | toxicity relative to decitabine (CMV-EE210 cell line) | TD50 (CMV-EE210 cell line) [µM] | IC50 [1] [µM] | melting point | % DNMT1 protein level remaining at 5 µM (DNMT1 [2]) [%] | % DNMT1 protein level remaining at 10 µM (DNMT1 [2]) [%] | % DNMT1 protein level remaining at 100 µM (DNMT1 [2]) [%] | GFP Expression Level ([1]; test compound 30-50 μM, decitabine at 11 M (so in the source), three days) | IC50 [1, 4] [µM] | % DNMT1 Level (DNMT1 [2]; 5 μM) [%] | % DNMT1 Level (DNMT1 [2]; 10 μM) [%] | % DNMT1 Level (DNMT1 [2]; 100 μM) [%]
 | CN(C)c1ccc2c(Nc3ccc(NC(=O)c4cccc(Nc5cc[n+](C)cc5)c4)cc3)ccnc2c1 [Cpd. CC, 7-(dimethylamino)-4-[4-({3-[(1-methyl-4-pyridiniumyl)amino]benzoyl}amino)aniline]quinolinium dichloride] | less than one-half as toxic as decitabine | 25 | 6 | 188 °C (dec.) | 65 | 81 | 26 |  |  |  |  | 
1.6 | O=C(Nc1ccc(SC2CNC(C(=O)O)C2)cc1)c1ccc(Nc2ccnc3ccccc23)cc1 (centres unmarked) [Cpd. DDD, 4-(4-(4-(quinolin-4-ylamino)benzamido)phenylthio)pyrrolidine-2-carboxylic acid] |  |  |  |  |  |  |  |  |  |  |  | 
5.5 | O=C(Nc1ccc(SC2CCNC2)cc1)c1ccc(Nc2ccnc3ccccc23)cc1 (centres unmarked) [Cpd. EEE, 3-(4-(4-(quinolin-4-ylamino)benzamido)phenylthio)pyrrolidine] |  |  |  |  |  |  |  |  |  |  |  | 
0.31 | O=C(Nc1ccc(SC2CCCNC2)cc1)c1ccc(Nc2ccnc3ccccc23)cc1 (centres unmarked) [Cpd. GGG, N-(4-(piperidin-3-ylthio)phenyl)-4-(quinolin-4-ylamino)-benzamide] |  |  |  |  |  |  |  |  |  |  |  | 
 | C[n+]1ccc(Nc2ccc(NC(=O)c3ccc(Nc4ccnc5ccc(N)cc45)cc3)cc2)cc1 [Cpd. L, 4-[4-({4-[(6-ammonio-4-quinolinyl)amino]benzoyl}amino)anilino]-1-methylpyridinium dichloride] |  | 50 | 50 | 262 to 266 °C | 144 | 145 | 128 | g2 (g2 positive if 30% of viable cells express GFP) |  |  |  | 
 | CN(C)c1ccc2nccc(Nc3ccc(C(=O)Nc4ccc(Nc5cc[n+](C)cc5)cc4)cc3)c2c1 [Cpd. O, 4-[4-({4-[(6-dimethylammonio-4-quinolinyl)amino]benzoyl}amino)-anilino]-1-methylpyridinium dichloride] | less than one-half as toxic as decitabine | 50 | 12.5 | 242 to 246 °C | 84 | 150 | 142 |  |  |  |  | 
 | Cc1cc(Nc2ccc(NC(=O)c3ccc(Nc4ccnc5ccc(N(C)C)cc45)cc3)cc2)nc(N)n1.Cl [Cpd. P, N-[4-(2-amino-6-methylpyrimidin-4-ylamino)phenyl]-4-(6-(dimethylamino)quinolin-4-ylamino)benzamide hydrochloride] | less than one-half as toxic as decitabine | 25 |  | 260 to 265 °C | 57 | 91 | 11 |  | 50 |  |  | 
 | CN(C)c1ccc2nccc(Nc3ccc(C(=O)Nc4cccc(Nc5cc[n+](C)cc5)c4)cc3)c2c1 [Cpd. Q, 6-(dimethylamino)-4-[4-({3-[(1-methyl-4-pyridiniumyl)amino]anilino}carbonyl)anilino]quinolinium dichloride] | less than one-half as toxic as decitabine | 25 | 12.5 | > 300 °C | 219 | 93 | 10 |  |  |  |  | 
 | CN(C)c1ccc2c(Nc3ccc(C(=O)Nc4cccc(Nc5cc[n+](C)cc5)c4)cc3)ccnc2c1.Cl.[Cl-] [Cpd. Z, 7-(dimethylamino)-4-[4-({3-[(1-methyl-4-pyridiniumyl)amino]anilino}carbonyl)anilino]quinolinium dichloride] | less than one-half as toxic as decitabine | 25 |  |  |  |  |  |  | 1 | 83 | 115 | 87
 | Nc1ncn([C@H]2C[C@H](O)[C@@H](CO)O2)c(=O)n1 [Decitabine, 5-aza-2′-deoxycytidine, reference compound] |  | 12.5 |  |  | 0 to 5 |  |  |  | 0.39 |  |  | 
